Source: patent US20040022777A1, “Fragments and antagonists of heat shock protein 60” (priority 1999, published 2004)
Ends that are not written are not given here.

What was measured:
Type in all cases: cell-based, mouse
[1] = tested on: bone marrow-derived macrophages of C3H/HeJ mice (mutant Toll-like receptor 4); experiment: TNFα production by bone marrow-derived macrophages with mutant Tlr4 (sandwich ELISA); details: C3H/HeJ macrophages; LPS 10 ng/ml, hsp60 10 μg/ml, oligonucleotides 30 μg/ml; 6 h
[2] = tested on: bone marrow-derived macrophages of C3H/HeJ mice (mutant Toll-like receptor 4); experiment: NO (nitrite) production by bone marrow-derived macrophages with mutant Tlr4 (Griess reaction); details: Tlr4 wild-type compared with Tlr4 defective macrophages; oligonucleotide 30 μg/ml; 24 h
[3] = tested on: hsp60 induced TNFα and Nitric oxide (NO) secretion in J774 cells; experiment: Screening of 10-mer peptides for inhibition of hsp60 induced (and CpG induced) TNFα secretion; details: crude peptides at a dilution of 1:10
Procedure: The crude peptides were re-suspended in 500 μl water and tested at a dilution of 1:10, for inhibition of hsp60 induced TNFα and Nitric oxide (NO) secretion in J774 cells (as described in example no. 1 of the application). Selected peptides were tested (in an equivalent assay) also for inhibition of CpG induced TNFα secretion. CpG is a non-specific immunostimulatory oligonucleotide motif with the sequence: […]. CpG DNA: a novel immunomodulator Trends Microbiol 1999; 7:64-5). CpG stimulates J774 cells to produce TNFα in a mechanism different to that used by hsp60 and thus serves as a negative control for non-selective inhibition of TNF secretion (which is not mediated through specific inhibition of hsp60). […] The peptides in this chart were selected for re-screening based on the activity found in screening all the 192 peptides synthesized. The results are presented as percent inhibition of TNF-secretion in response to induction with hsp60 or CpG, and are the average of two repeats.

[4] = tested on: bone marrow-derived macrophages of C57BL/6 and C3H/HeN mice; experiment: NO (nitrite) production by bone marrow-derived macrophages with wild-type Tlr4 (Griess reaction); details: C57BL/6 and C3H/HeN macrophages; LPS 10 ng/ml, hsp60 10 μg/ml; 24 h
[5] = tested on: bone marrow-derived macrophages of C57BL/6 and C3H/HeN mice; experiment: TNFα production by bone marrow-derived macrophages with wild-type Tlr4 (sandwich ELISA); details: C57BL/6 and C3H/HeN macrophages; LPS 10 ng/ml, hsp60 10 μg/ml; 6 h

Substance	TNFα response [1]	NO response / NO formation in the two macrophage types [2]	inhibition of hsp60 induced TNFα secretion, activity and specificity versus CpG induced TNFα secretion [3]	NO production [4]	TNFα secretion [5]
5′-ACCGATAACGTTGCCGGTGACG-3′ (DNA ACCGATAACGTTGCCGGTGACG; chemistry not given here) [Pal+, immunostimulatory oligonucleotide containing a CpG motif]	less stimulatory	failed to induce NO formation	–	–	–
5′-TCCATGACGTTCCTGATGCT-3′ (DNA TCCATGACGTTCCTGATGCT; chemistry not given here) [ODN1668, immunostimulatory oligonucleotide containing a CpG motif]	strong TNFα response	very similar NO response	–	–	–
5′-TCCATGAGCTTCCTGATGCT -3′ (DNA TCCATGAGCTTCCTGATGCT; chemistry not given here) [ODN1720, non-stimulatory oligonucleotide lacking a CpG motif]	did not provoke a response	failed to induce NO formation	–	–	–
KVGGTSDVEV [Peptide No. 175]	–	–	hsp60-inhibiting	–	–
Lipopolysaccharide [LPS, reference compound]	no response	–	–	responded	rapid secretion of large amounts of TNFα
VLKVGGTSDV [Peptide No. 173]	–	–	hsp60-inhibiting	–	–
